Test results published in patent US20150166520A1, “AMIDO-SUBSTITUTED PYRIMIDINONE DERIVATIVES USEFUL FOR THE TREATMENT OF HIV INFECTION” (MERCK SHARP & DOHME CORP., priority 2012, published 2015).

Tests used:
[1] = system: cryopreserved hepatocytes from rat; test: Metabolism of compounds in hepatocyte suspensions (prodrug hydrolysis), rat; assay type: in vitro ADME; settings: prodrug 1 μM, rat hepatocytes 1×10^6 cells/mL, 37° C.
Procedure: (§1) Selected compounds of the present invention (1 μM) were incubated with suspensions of cryopreserved hepatocytes from rat, dog and human subjects at a cell density of 1×10^6 cells/mL. The samples were incubated for 0, 5, 15, 30, 60 and 90 minutes in a 95% humidified incubator at 37° C. with 5% CO2. At each time point, the samples were quenched with acetonitrile containing an appropriate internal standard. The samples were then vortex-mixed and centrifuged at ˜2,900×g for 30 minutes. The supernatants were transferred to clean plates and analyzed using LC-MS/MS. Following quantification of prodrug and parent in the samples, half lives of conversion (t1/2) were determined from the rates of prodrug degradation according to first-order kinetics. Conversion to active metabolite (compound 1a) was confirmed by following the formation of compound 1a.

[2] = system: cryopreserved hepatocytes from dog; test: Metabolism of compounds in hepatocyte suspensions (prodrug hydrolysis), dog; assay type: in vitro ADME; settings: prodrug 1 μM, dog hepatocytes 1×10^6 cells/mL, 37° C.
Procedure: as §1

[3] = system: cryopreserved hepatocytes from human; test: Metabolism of compounds in hepatocyte suspensions (prodrug hydrolysis), human; assay type: in vitro ADME; settings: prodrug 1 μM, human hepatocytes 1×10^6 cells/mL, 37° C.
Procedure: as §1

[4] = Intravenous pharmacokinetics in Wistar-Hanover rats; assay type: in vivo, male Wistar-Hanover rats; settings: rat, plasma; for half-life / AUC / Vd / clearance: male, Wistar-Hanover; for half-life / Vd / clearance: prodrug; for AUC / nAUC0-∞: prodrug measured; for AUC: read-out: AUC0-x; for Vd: read-out: Vdss; for clearance: read-out: Clp
Procedure: (§2) Selected compounds of the present invention were administered in suitable vehicles to male Wistar-Hanover rats. Intravenous (IV) administration to rats was conducted via cannulas implanted in the jugular vein. For oral administration, test compounds were administered by gavage. Blood samples were serially collected following dose administration for up to 24 hr and plasma was separated by centrifugation. The concentration of test compound in rat plasma were determined by a LC-MS/MS assay following a protein precipitation step and addition of an appropriate internal standard. Quantification was done by determining peak area-ratios of the test compound and compound 1a (the metabolite of each of the test compounds) to the internal standard. Pharmacokinetic parameters were obtained using non-compartmental methods (Watson®). The area under the plasma concentration-time curve (AUC0-t) was calculated from the first time point (0 min) up to the last time point with measurable test compound concentration using the linear trapezoidal or linear/log-linear trapezoidal rule. The IV plasma clearance was calculated by dividing the dose by AUC0-inf. The terminal half-life of elimination was determined by unweighted linear regression analysis of the log-transformed data. The time points for determination of half-life were selected by visual inspection of the data. The volume of distribution at steady state (Vdss) was obtained from the product of plasma clearance and mean residence time (determined by dividing the area under the first moment curve by the area under the curve). The maximum plasma concentration (Cmax) and the time at which maximum concentration occurred (Tmax) were obtained by inspection of the plasma concentration-time data. Absolute oral bioavailability was determined from dose-adjusted IV and P.O. AUC ratios.

[5] = Oral pharmacokinetics in Wistar-Hanover rats; assay type: in vivo, male Wistar-Hanover rats; settings: plasma, rat; for bioavailability: oral, prodrug, from dose-adjusted IV and P.O. AUC ratios; for Tmax / AUC / Cmax / nAUC: oral gavage, prodrug measured; for AUC: read-out: AUC0-x hr
Procedure: as §2

[6] = Dog pharmacokinetic study, oral dose; assay type: in vivo; design: AUC(0-t) / Tmax: dose or concentration left out as unconfirmed; settings: male, plasma, fasted Beagle dogs, compound measured = prodrug dosed; for Cmax / AUC(0-t): mean ± SE; for AUC(0-t): read-out: AUC0-24 hr; for Tmax: median
Procedure: (§3) Six Male Beagle Dogs (Marshall Farms) weighing 9.0-11.6 kg were used for the studies. Studies were conducted under a protocol approved by the WP-IACUC (Animal Procedure Statement #09068544080285). […] Dosing was followed by 5 mL water rinse via oral gavage for oral dosing or with a post-dose water flush of the catheter for colonic dosing. Water was restricted for 1 hour post dose. Food was returned at 4 hours after dosing. Blood (1-mL) was drawn at pre-dose, 0.25, 0.5, 1, 2, 4, 6, 8 and 24 hours post-dosing. The plasma was separated by centrifugation (10 minutes at 2500 g) and kept frozen at −70° C. until analysis by LC-MS/MS.

[7] = Dog pharmacokinetic study, colonic dose; assay type: in vivo, Male Beagle Dogs; design: AUC(0-t) / Tmax: dose or concentration left out as unconfirmed; settings: for colonic absorption versus metabolite Compound 1a: Beagle dogs, colonic dosing, statement in words; for Cmax / AUC(0-t) / Tmax: male, dog, plasma, fasted Beagle dogs, Colonic, compound measured = prodrug dosed; for Cmax / AUC(0-t): mean ± SE; for AUC(0-t): read-out: AUC0-24 hr; for Tmax: median
Procedure: as §3

[8] = male, Wistar-Hanover, read-out: Cmax

| Remaining at 90 min, Rat [1] [%] | Remaining at 90 min, Dog [2] [%] | Remaining at 90 min, Human [3] [%] | bioavailability ([5]; male, Wistar-Hanover) [%] | Tmax ([5]; male, Wistar-Hanover) [min] | AUC ([5]; male, Wistar-Hanover) [nM·h] | Cmax [5, 8] [µM] | nAUC [5] [nM·h] | Compound | half-life [4] [min] | AUC [4] [nM·h] | nAUC0-∞ [4] [nM·h] | other results |
| --- | --- | --- | --- | --- | --- | --- | --- | --- | --- | --- | --- | --- |
|  |  |  | 6.6 | 67.8 | 39 | 0.019 | 8 | Cc1nnc(C(=O)NC(C)(C)c2nc(C(=O)NCc3ccc(F)cc3)c(OC(C)OC(=O)OC(C)C)c(=O)n2C)o1 (stereo not shown) [Compound 2] | 10.2 | 119 | 119 | Vd [4]: 2.17 L/kg; clearance [4]: 14.6 L/h/kg |
| 2.72 | 3.31 | 2.12 |  |  |  |  |  | CCCCOC(=O)OC(C)Oc1c(C(=O)NCc2ccc(F)cc2)nc(C(C)(C)NC(=O)c2nnc(C)o2)n(C)c1=O (stereo not shown) [Compound 7] |  |  |  |  |
| 38.75 | 5.97 | 14.81 |  |  |  |  |  | Cc1nnc(C(=O)NC(C)(C)c2nc(C(=O)NCc3ccc(F)cc3)c(OC(OC(=O)OC(C)C)C(C)C)c(=O)n2C)o1 (stereo not shown) [Compound 12] |  |  |  |  |
| 6.20 | 8.90 | 14.00 | 7 | 45 | 28 | 0.021 | 6 | CCOC(=O)OC(CC)Oc1c(C(=O)NCc2ccc(F)cc2)nc(C(C)(C)NC(=O)c2nnc(C)o2)n(C)c1=O (stereo not shown) [Compound 15] | 8.4 | 85 | 85 | Vd [4]: 3.48 L/kg; clearance [4]: 23.3 L/h/kg |
| 0.60 | 1.70 | 1.80 |  |  |  |  |  | Cc1nnc(C(=O)NC(C)(C)c2nc(C(=O)NCc3ccc(F)cc3)c(OCOC(=O)OC(C)C)c(=O)n2C)o1 [Compound 20] |  |  |  |  |
| 50.65 | 8.14 | 28.06 |  |  |  |  |  | CC(=O)OC(Oc1c(C(=O)NCc2ccc(F)cc2)nc(C(C)(C)NC(=O)c2nnc(C)o2)n(C)c1=O)C(C)C (stereo not shown) [Compound 23] |  |  |  |  |

| Compound | Remaining at 90 min, Rat [1] [%] | Remaining at 90 min, Dog [2] [%] | Remaining at 90 min, Human [3] [%] | bioavailability ([5]; male, Wistar-Hanover) [%] | Tmax ([5]; male, Wistar-Hanover) [min] | AUC ([5]; male, Wistar-Hanover) [nM·h] | Cmax [5, 8] [µM] | nAUC [5] [nM·h] | half-life [4] [min] | AUC [4] [nM·h] | nAUC0-∞ [4] [nM·h] | other results |
| --- | --- | --- | --- | --- | --- | --- | --- | --- | --- | --- | --- | --- |
| CCOC(=O)OC(C)Oc1c(C(=O)NCc2ccc(F)cc2)nc(C(C)(C)NC(=O)c2nnc(C)o2)n(C)c1=O (stereo not shown) [Compound 1] | 30.30 | 15.94 | 19.32 | 3 | 15 | 2 | 0.006 | 0.4 | 9 | 12 | 12 | Cmax [6]: 0.212 ± 0.032 µM; AUC(0-t) [6]: 146 ± 33 nM·h; Tmax [6]: 18 min; colonic absorption versus metabolite Compound 1a [7]: significant increase in colonic absorption; Cmax [7]: 0.091 ± 0.025 µM; AUC(0-t) [7]: 83 ± 34 nM·h; Tmax [7]: 18 min |
| Cc1nnc(C(=O)NC(C)(C)c2nc(C(=O)NCc3ccc(F)cc3)c(OCOC(=O)C(C)(C)C)c(=O)n2C)o1 [Compound 22] | 3.58 | 3.21 | 4.27 |  |  |  |  |  | 2.4 | 12 | 12 | Cmax [5]: BLQ; Cmax [6]: 0.008 ± 0.002 µM; AUC(0-t) [6]: 6 ± 2 nM·h; Tmax [6]: 30 min; colonic absorption versus metabolite Compound 1a [7]: significant increase in colonic absorption; Cmax [7]: 0.01 ± 0.003 µM; AUC(0-t) [7]: 14 ± 3 nM·h; Tmax [7]: 15 min |
